Tests used:
[1] = tested on: green peach aphid (Myzus persicae); assay: Test 1: control of green peach aphid through systemic means (artificial diet, 96-well microtiter plates); type: in vivo; conditions: 3 days
Description: If present, synergism can be described as an interaction where the combined effect of two or more compounds is greater than the sum of the individual effects of each of the compounds. The presence of a synergistic effect in terms of percent control, between two mixing partners (X and Y) can be calculated using the Colby equation (Colby, S. R., 1967, Calculating Synergistic and Antagonistic Responses in Herbicide Combinations, Weeds, 15, 20-22):
When the observed combined control effect is greater than the expected combined control effect (E), then the combined effect is synergistic.
For evaluating control of green peach aphid (Myzus persicae) through systemic means the test unit consisted of 96-well-microtiter plates containing liquid artificial diet under an artificial membrane.
The compounds or mixtures were formulated using a solution containing 75% water and 25% DMSO. Different concentrations of formulated compounds or mixtures were pipetted into the aphid diet, using a custom built pipetter, at two replications.
For experimental mixtures in these tests identical volumes of both mixing partners at the desired concentrations respectively, were mixed together.
After application, 5-8 adult aphids were placed on the artificial membrane inside the microtiter plate wells. The aphids were then allowed to suck on the treated aphid diet and incubated at […], 50±5% RH for 3 days. Aphid mortality and fecundity was then visually assessed. For the mixture tested the results are listed in the tables for Example E2-1 and E2-2.

Degradation in soil = type: physicochemical; conditions: neutral sandy loam soil LUFA 5M; incubated at 27° C. and 40% of max. water-holding capacity over 90 days; DT50 referring to 20° C.; SFO or DFOP kinetics
Description: Degradation of the compound (I-B-131) and compound (I-B-33) in soil was compared. The two compounds were incubated in neutral sandy loam soil (LUFA 5M) at 27° C. and 40% of the max. water-holding capacity over a period of 90 days. Soil extraction was carried out with acetonitrile followed by acetonitrile/water (1/1) and the extracted test compounds were quantified by HPLC-MS. The following DT50 values (referring to 20° C.) were obtained assuming single first order (SFO) or double first order in parallel (DFOP) kinetics: […]

[2] = tested on: Neonicotinoid resistant strain of the brown planthopper (Nilaparvata lugens); assay: B2 b) Nilaparvata lugens larvicide, feeding/contact activity, preventive on rice seedlings; Resistance Factor RF80; type: in vivo; conditions: IND3 strain (neonicotinoid resistant) vs standard screening strain of Nilaparvata lugens; lowest concentration giving greater than 80% mortality
Description: (§1) The level of resistance and therefore the impact on the performance of the insecticide can be measured by the use of a ‘Resistance Factor’. The resistance factor can be calculated by dividing the concentration of an insecticide that provides a set level of mortality (i.e. 80 percent) for the ‘resistant’ strain with the concentration of the same insecticide that provides the same level of mortality for the ‘susceptible’ insect of the same species and life-stage. Although there are no set rules, a low value (1-10) indicates no cross-resistance and only natural levels of variation and a high value (50+) provides strong evidence of cross-resistance.
b) Neonicotinoid Resistant Strain of the Brown Planthopper (Nilaparvata lugens)
Nilaparvata lugens strains utilised: • Standard screening strain of Nilaparvata lugens (Neonicotinoid susceptible) • IND3 strain of Nilaparvata lugens (Neonicotinoid resistant) Bioassay Method: Nilaparvata lugens: Larvicide, Feeding/Contact Activity, Preventive
Rice seedlings are treated with the diluted test solutions in a turn table spray chamber. After drying, they are infested with 20 N3 nymphs. 6 and 12 days after the treatment samples are checked for mortality, growth regulation, and effects on the Fi generation.
The Resistance Factor (RF80) of different compounds is tested. […]

[3] = tested on: Neonicotinoid and pyrethroid resistant strain of the green peach aphid (Myzus persicae); assay: B2 a) Myzus persicae mixed population, contact activity, curative on pea seedlings; Resistance Factor RF80; type: in vivo; conditions: FRC-P strain (neonicotinoid resistant) vs standard screening strain of Myzus persicae; lowest concentration giving greater than 80% mortality, 6 days after treatment
Description: B2: Determination of the cross-resistance status of compounds I when applied against agronomically important pest species resistant to one or more commercially available class of insecticide.
as §1
a) Neonicotinoid and Pyrethroid Resistant Strain of the Green Peach Aphid (Myzus persicae)
Myzus persicae strains utilised: • Standard screening strain of Myzus persicae (Neonicotinoid susceptible) • FRC-P strain of Myzus persicae (Neonicotinoid resistant) Bioassay Method
Myzus persicae: mixed population, contact activity, curative on pea seedlings
Pea seedlings, infested with an aphid population of mixed ages, are treated with the test solutions in a spray chamber. 6 days after treatment, samples are checked for mortality. […]

[4] = tested on: ALM07 strain (neonicotinoid and pyrethroid resistant), adult whitefly
Description: Bioassay Method Bemisia tabaci Residual Activity, Preventive Egg Lay

[5] = tested on: Diamide-resistant diamond back moth (Plutella xylostella), Cebu strain; conditions: third instar larvae, mortality 3 days after inoculation; comparing LC50s and LC90s

**Q.** With `CC(NC(=O)c1cc(Cl)cc(Br)c1NC(=O)c1cc(Br)nn1-c1ncccc1Cl)C1CC1` (stereo not shown) [I-A-1] as the molecule, how does the “Average Control %” value ([1]; Example E2-1, 0.4 ppm) read?
**A.** 0%

**Q.** And the “Average Control %” value ([1]; Example E2-2, 0.8 ppm)?
**A.** 0%

**Q.** What does the source list for `CNC(=O)c1cc(Cl)cc(C)c1NC(=O)c1cc(Br)nn1-c1ncccc1Cl` [I-B-33, chlorantraniliprole]?
**A.** Average Control % ([1]; Example E2-2, 0.4 ppm): 0%; DT50 (Degradation in soil): 89 days

**Q.** With `CC1=NNC(=O)N(/N=C/c2cccnc2)C1` [Pymetrozine, pymetrozine] as the molecule, how does the “Average Control %” value ([1]; Example E2-1, 80 ppm) read?
**A.** 0%

**Q.** For `CN1COCN(Cc2cnc(Cl)s2)/C1=N\[N+](=O)[O-]` [thiamethoxam], which “Resistance Factor (RF80)” value [2] is on record?
**A.** > 64

**Q.** And the “Resistance Factor (RF80)” value [3]?
**A.** > 250

**Q.** What about the “RF in residual mortality bioassay of adult whitefly” value [4] of the same molecule?
**A.** > 250

**Q.** With `Cc1cc(Cl)cc(C(N)=O)c1NC(=O)c1cc(C(F)(F)F)nn1-c1ncccc1Cl` [I-B-131, N-(2-carbamoyl-4-chloro-6-methyl-phenyl)-2-(3-chloro-2-pyridyl)-5-(trifluoromethyl)pyrazole-3-carboxamide] as the molecule, how does the DT50 (Degradation in soil) read?
**A.** 41 days

**Q.** With `Cc1cc(C(F)(C(F)(F)F)C(F)(F)F)ccc1NC(=O)c1cccc(I)c1C(=O)NC(C)(C)CS(C)(=O)=O` [flubendiamide] as the molecule, how does the “Efficacy against field collected Cebu strain of Plutella xylostella” value [5] read?
**A.** only weak efficacies

Reference: patent publication US9765052B2, “Anthranilamide compounds, their mixtures and the use thereof as pesticides” (BASF SE, priority 2013, dated 2017)
